Data taken from patent publication US9730979B2, “Methods for decreasing set in inhibiting protein phosphatase 2A (PP2A) and/or increasing the activity of cyclin-dependent kinase 5 (CDK5) by an APOE peptide” (COGNOSCI, INC., priority 2006, dated 2017).

Legend:
PP2A = PP2A activity (rate of phosphate release) of PP2A immunoprecipitated from treated RAW cells; assay type: cell-based, mouse; conditions: 10 nM okadaic acid alone, 1 hour
Description: Mouse macrophagic RAW cells were incubated with either 100 ng/mL LPS, 1 μM COG 112 (COG 133 conjugated to antennapedia), LPS and COG 112, 10 nM okadaic acid (an inhibitor of PP2A), or okadaic acid and COG 112. After 1 hour, cells were lysed and PP2A was immunoprecipitated by adding an antibody targeted to the catalytic C-subunit of PP2A. Half of the immunoprecipitate was separated by SDS-PAGE, blotted on to nitrocellulose, and probed with an anti-PP2AC antibody. The remaining portion was assayed for activity by adding 125 μL assay cocktail containing a phospho-threonine substrate peptide to the immunoprecipitated enzyme. After incubating at 37° C. with shaking, a 25 μL aliquot was removed and added to an ammonium molybdate solution (Upstate) that chelates free phosphate and changes color upon chelate formation. Aliquots were removed at various time intervals and the amount of free phosphate released from the peptide was determined by comparison to a phosphate standard curve. The rate of phosphate release was determined by linear fit to the time course data and was normalized to the relative PP2A concentration. PP2A activity, measured by the rate of phosphate release, is increased in the presence of COG 112 (FIG. 8), as would be expected if SET inhibition of PP2A was eliminated by binding of COG112 to SET. […]

tau = experiment: Okadaic acid induced phospho-tau (AT-8) in mouse cortex; assay type: in vivo, C57B1/6 mice
Description: C57B1/6 mice were injected intravenously with increasing concentrations of okadaic acid (OA) (calculated by administration of a sufficient quantity of OA to produce the indicated μM concentration in a blood volume of 2 mL). One hour after OA was administered, mice were euthanized by decapitation and the brain removed. The cortex was isolated, flash frozen with liquid nitrogen, ground to a fine powder and an extract made by homogenization of the powder in an extraction buffer containing protease and phosphatase inhibitors. Protein extracts were separated by SDS-PAGE, transferred to nitrocellulose membranes, and probed for phospho-tau using the AT-8 antibody that recognizes phosphorylation of Ser202 and Thr205 of tau. Phospho-tau signals were normalized to signals from GAPDH protein. […] To determine the effect of COG peptides on the phosphorylation status of the tau protein, 5 mg/kg of COG 1410 was administered to the mice by subcutaneous injection 15 minutes prior to OA administration. FIG. 11B depicts the results of this series of experiments.

SET bound to P35 [1] = target: T1, SET bound to P35 (Mus musculus, UniProt Q9EQU5); experiment: Co-precipitation of SET with immunoprecipitated p35 from mouse brain lysate; assay type: binding; conditions: 50 μM peptide, SET normalized to P35
T1 construct: from tissue; host or cells: mouse brain lysate
Description: (§1) FIG. 12. Mouse brain lysate was incubated with 50 μM of each of the peptides indicated. P35 was subsequently immunoprecipitated from 1 mg of the peptide-treated lysate. Western blots were performed to measure co-precipitation of SET protein (left panel). […] Signals from SET were normalized to signals for P35 protein. Results with COG 133 are not shown and were inconclusive possibly due to unequal protein loading.
(§2) Cdk5 requires the activator protein p35 for kinase activity. Although cdk5 is ubiquitously expressed, p35 expression is restricted to neurons of the central nervous system, thus limiting cdk5 associated kinase activity to these neurons. Cleavage of p35 to p25 disregulates cdk5 kinase activity causing the kinase to become constitutively active. Constitutive kinase activity of cdk5/p25 has been implicated in the aberrant hyperphosphorylation of tau protein and subsequent neurodegeneration found in Alzheimer's disease and other tauopathies. […] Therefore, it may be possible to reduce cdk5 kinase activity by interfering with the interaction between SET and the cdk5/p35 complex. To test this possibility, the effects of COG peptides on the binding of SET to p35 were examined. Mouse brain lysates (FIG. 12) or human brain lysates (FIG. 13) were incubated with 50 μM of COG 056 (reverse sequence of COG133), COG 112, COG133, or COG 1410. […]

SET from human brain = target: T2, SET from human brain (Homo sapiens, UniProt Q01105); experiment: Biotinylated COG 133 pull-down of SET from human brain extract, competition with excess peptide; assay type: binding
T2 construct: pulls down SET from human brain extracts; from tissue; host or cells: human brain homogenate
Description: Human brain was homogenized in PBS buffer with a protease cocktail tablet and centrifuged to remove cellular debris. 100 ng of biotinylated COG 133 (COG 133 peptide with biotin attached to the N-terminus) was added to 1 mg of clarified supernatant. After 4 hours of incubation at room temperature, 50 μL of a 50% slurry of streptavidin agarose beads were added. After an additional hour of incubation, the beads were pelleted by centrifugation. The beads were washed 3 times with PBS buffer containing 0.1% tween 20 detergent. 50 μL of a 2×SDS PAGE loading buffer (containing DTT) were added to the washed beads and the samples were boiled for 2 minutes. Polyacrylamide gels were loaded with either 40 μL of extract per lane or 10 μg of total brain extract protein (control lane) and run in SDS buffer. […] Membranes were then probed with an anti-SET antibody. Blots were developed with Enhanced Chemiluminescence substrates (GE healthcare) and visualized by exposure to film.
In a related experiment, derivatives of the COG 133 peptide were tested for SET binding. Human brain extracts were prepared as described above. A 10-fold excess of COG 1410 or COG 112 peptide was added to the brain extract and incubated for 10 minutes. Next, 100 ng of biotinylated COG 133 was added to the extract and incubated for four hours at room temperature. […]

SET bound to P35 [2] = target: T3, SET bound to P35 (Homo sapiens, UniProt Q01105); experiment: Co-precipitation of SET with immunoprecipitated p35 from human brain lysate; assay type: binding; conditions: 50 μM peptide, SET normalized to P35
T3 construct: from tissue; host or cells: human brain lysate
Description: as §1, with “13. Human” for “12. Mouse”, “protein.” for “protein. Results with COG 133 are not shown and were inconclusive possibly due to unequal protein loading.”
as §2, with “1410. Activator protein p35 was immunoprecipitated with an anti-p35 antibody and protein A agarose beads from 1 mg of the peptide-treated brain lysates.” for “1410.”

[3] = relative to COG 133; cited from earlier work
[4] = system: extracellular regulated kinase (ERK) 1/2; experiment: LPS-induced phosphorylation of ERK 1/2 in BV2 microglia, western blot; assay type: cell-based, mouse; conditions: LPS plus peptide, 30 minutes
Description: (§3) Mouse BV2 microglia were incubated with either a negative control, LPS, or LPS and COG 133 (SEQ ID NO: 1) peptide for 30 minutes. Cells were lysed and a clarified extract prepared by centrifugation. Polyacrylamide gels were loaded with 30 μg of extract per lane and run in SDS buffer. […] Membranes were then probed with phospho-specific p38 MAP kinase, MKK 3/6, JNK, ERK, and IκB antibodies. Membranes were developed with Enhanced Chemiluminescence substrates (GE healthcare) and visualized by exposure to film. Membranes were then stripped and reprobed for total p38, JNK, Erk or IκB using non phospho-specific antibodies as previously described. In some experiments, the membranes were probed for GAPDH protein. Densitometry analysis of the western blots was conducted and the signals from phosphorylated p38 MAP kinase were normalized to those from GAPDH. […] PP2A has been reported to bind and dephosphorylate p38 MAP kinase (Sundaresan & Farndale 2002 FEBS Letters 528, 139). Given that COG peptides can increase PP2A activity (Example 5), it is likely that the dephosphorylation of p38 MAP kinase occurs through the activation of PP2A by COG binding to SET.

[5] = system: c-Jun N-terminal kinase (JNK); experiment: LPS-induced phosphorylation of JNK in BV2 microglia, western blot; assay type: cell-based, mouse; conditions: LPS plus peptide, 30 minutes
Description: as §3

p38 MAP kinase = experiment: LPS-induced phosphorylation of p38 MAP kinase in BV2 microglia, western blot; assay type: cell-based, mouse; conditions: LPS plus peptide, 30 minutes, normalized to GAPDH
Description: as §3

BV2 cells [6] = experiment: LPS-induced nitric oxide production in BV2 cells with and without siRNA to SET; assay type: cell-based, mouse; conditions: BV2 cells transfected with siRNA to SET
Description: See PCT application PCT/US05/31431 which claims priority to U.S. Provisional Applications 60/606,506, filed Sep. 2, 2004, 60/608,148, filed Sep. 9, 2004, and 60/606,507, filed Sep. 2, 2004 which are herein incorporated by reference in their entireties. BV2 cells were transfected with siRNA to SET. BV2 cells transfected with the siRNA and BV2 cells not transfected with the siRNA were treated with COG 133, LPS, or LPS and COG 133 as described in the above-referenced patent applications. Untreated BV2 cells were used as a control. FIG. 3 is a graph of the results. Bars three and seven correspond to LPS without siRNA to SET and with siRNA to SET, respectively. […] Similarly, there is a reduction in nitric oxide in the group treated with LPS and COG 133 and transfected with siRNA to SET compared to the group treated with LPS and COG 133 and not transfected with siRNA (lanes 8 and 4, respectively).

NFκB = experiment: Nuclear NFκB in LPS-stimulated colonic epithelial cells, gel shift with radiolabeled oligonucleotide; assay type: cell-based; conditions: nuclear extracts
Description: In the dephosphorylated state, IκB binds to the transcription factor NFκB and prevents it from translocating to the nucleus to activate transcription of pro-inflammatory cytokines. […] A radiolabeled oligonucleotide containing a NFκB binding site was added to the proteins from the nuclear extracts and the proteins were subsequently separated by non-denaturing polyacrylamide gel electrophoresis. The amount of NFκB present in the nuclear extracts was detected by autoradiography (FIG. 10D). Nuclear NFκB was reduced in the presence of COG 133 providing further evidence that this signal transduction cascade is suppressed in cells treated with ApoE peptides.

BV2 cells [7] = conditions: without siRNA; previously shown; cited from earlier work
IκB = experiment: LPS-induced phosphorylation of IκB in BV2 microglia, western blot; assay type: cell-based, mouse; conditions: LPS plus peptide, 30 minutes
Description: as §3

human THP1 cells = experiment: LPS-induced TNFα production in human THP1 cells with and without siRNA to SET; assay type: cell-based; conditions: SET removed by siRNA-based silencing
Description: Consistent with the mechanism of SET as an inhibitor of Protein Phosphatase 2A (PP2A), a reduction of the LPS-induced TNF response as well as elimination of the effect of COG 133 was observed when SET was removed from the cells.

T2 sequence (Q01105 whole entry): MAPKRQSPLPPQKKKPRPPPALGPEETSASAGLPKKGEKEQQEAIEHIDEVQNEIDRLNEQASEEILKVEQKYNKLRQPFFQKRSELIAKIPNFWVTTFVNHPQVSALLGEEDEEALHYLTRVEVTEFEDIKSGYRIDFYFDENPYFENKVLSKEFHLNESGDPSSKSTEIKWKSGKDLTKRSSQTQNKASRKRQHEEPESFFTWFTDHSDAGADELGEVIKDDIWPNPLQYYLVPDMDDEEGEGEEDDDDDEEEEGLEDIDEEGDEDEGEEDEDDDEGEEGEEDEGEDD
T3 sequence (Q01105 2-290 limits assumed): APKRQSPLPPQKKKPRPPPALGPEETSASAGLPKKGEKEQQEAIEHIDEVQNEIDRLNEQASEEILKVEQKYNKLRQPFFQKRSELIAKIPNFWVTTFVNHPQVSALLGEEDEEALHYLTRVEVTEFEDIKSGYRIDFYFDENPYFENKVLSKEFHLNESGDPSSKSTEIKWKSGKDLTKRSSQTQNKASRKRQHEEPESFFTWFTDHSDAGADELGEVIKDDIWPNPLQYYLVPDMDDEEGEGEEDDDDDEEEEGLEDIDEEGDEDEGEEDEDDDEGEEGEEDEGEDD
Sequence of SET (Q9EQU5 37-289 limits assumed): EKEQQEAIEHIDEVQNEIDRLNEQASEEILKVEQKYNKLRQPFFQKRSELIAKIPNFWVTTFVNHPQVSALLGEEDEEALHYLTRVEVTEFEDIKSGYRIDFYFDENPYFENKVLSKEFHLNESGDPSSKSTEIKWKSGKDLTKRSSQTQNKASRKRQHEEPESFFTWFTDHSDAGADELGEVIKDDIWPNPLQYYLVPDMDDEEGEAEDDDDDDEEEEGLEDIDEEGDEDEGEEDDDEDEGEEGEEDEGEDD
T1 sequence (Q9EQU5 2-289 limits assumed): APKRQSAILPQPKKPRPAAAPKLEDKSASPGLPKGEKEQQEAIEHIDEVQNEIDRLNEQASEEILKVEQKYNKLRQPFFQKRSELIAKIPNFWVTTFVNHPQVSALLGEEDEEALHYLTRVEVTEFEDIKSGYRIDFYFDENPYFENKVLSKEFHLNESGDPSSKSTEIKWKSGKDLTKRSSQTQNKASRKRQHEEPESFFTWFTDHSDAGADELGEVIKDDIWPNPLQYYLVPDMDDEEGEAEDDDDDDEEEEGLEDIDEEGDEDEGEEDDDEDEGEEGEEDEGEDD

In the case of C=C1[C@@H](O)[C@@H]2O[C@]3(CC[C@H](/C=C/[C@@H](C)[C@@H]4CC(C)=C[C@@]5(O[C@H](C[C@@](C)(O)C(=O)O)CC[C@H]5O)O4)O3)CC[C@H]2O[C@@H]1[C@@H](O)C[C@H](C)[C@H]1O[C@@]2(CCCCO2)CC[C@H]1C [okadaic acid, reference compound], the “baseline PP2A activity” value (PP2A) is reported as “decrease in baseline PP2A activity” and the “phospho-tau in the cortex” value (tau; okadaic acid intravenously, increasing concentrations, one hour, normalized to GAPDH) is reported as “concentration-dependent increase”.
With Ac-AS-Aib-LRKL-Aib-KRLL-NH2 [COG 1410] the “phosphorylated tau protein induced by OA” value (tau; mouse, in vivo) was “reduced the amount of phosphorylated tau protein”, the “competition with biotinylated COG 133 for binding to SET” value (SET; BV2 cells, anti-SET western blot) was “competes with COG 133 in binding to SET” and the “amount of SET bound to P35” value (SET bound to P35 [1]) was “reduce the amount of SET bound to P35”. The “SET protein pulled down with biotinylated COG 133” value (SET from human brain; 10-fold excess of competitor peptide, human brain extract) was “reduces the amount of SET protein pulled down”, the “amount of SET bound to P35” value (SET bound to P35 [2]) was “reduce the amount of SET bound to P35” and the “gain in therapeutic window as compared to COG 133” value [3] was 4 fold.
In the case of LRVRLASHLRKLRKRLL [COG 133], the “LPS-induced phosphorylation of ERK” value [4] is reported as “reduces the LPS-induced phosphorylation”, the “LPS-induced phosphorylation of JNK” value [5] is reported as “reduces the LPS-induced phosphorylation” and the “phosphorylation of p38 MAP kinase” value (p38 MAP kinase) is reported as “decrease in phosphorylation”. For the same compound, the “amount of SET bound to P35” value (SET bound to P35 [2]) was “reduce the amount of SET bound to P35”, the “nitric oxide, LPS+COG 133+siRNA versus LPS+siRNA” value (BV2 cells [6]) was “not a significant difference” and the “nuclear NFκB” value (NFκB) was “reduced”. For the same compound, the “LPS-induced nitric oxide production” value (BV2 cells [7]) was “reduce LPS-induced nitric oxide production”, the “LPS-induced phosphorylation of IκB” value (IκB) was “reduces the LPS-induced phosphorylation” and the “effect in reducing LPS-induced TNFα production” value (human THP1 cells) was “eliminated”.
With “biotinylated COG 133 [reference compound]” the “binding to SET” value (SET) was “uniquely bind” and the “binding to SET” value (SET from human brain; 100 ng peptide in 1 mg human brain supernatant, streptavidin pull-down) was “binds to and pulls down SET”.
